Test results as given in patent US20150218654A1, “METHODS FOR PREDICTING MULTIPLE MYELOMA TREATMENT RESPONSE” (INSERM (INSTITUT NATIONAL DE LA SANTÉ ET DE LA RE- CHERCHE …, priority 2012, published 2015).
Like-named read-outs stand apart in the source and are kept apart here.

Assays:
[1] = test system: primary myeloma cells of patients (CD138+ viable plasma cells); experiment: Mononuclear cell culture of patients' tumor samples, count of viable CD138+ myeloma cells by flow cytometry; format: cell-based, human; conditions: primary MMCs of high DM Score patients (N=7) versus low DM Score patients (N=7), P<0.05
Experimental: Mononuclear cells from tumor samples of 12 patients with MM were cultured for 4 days in the presence of IL-6 (2 ng/ml) with or without graded decitabine concentrations. At day 4 of culture, the cell count and the viability were determined and the percentage of CD138^+ viable plasma cells was determined by flow cytometry. Black color represents patients with high DM Score (N=6) and white represents patients with low DM Score values (N=6).
Mononuclear cells from tumor samples of 14 patients with MM were cultured for 4 days in the presence of IL-6 (2 ng/ml) with or without graded 5-azacitidine concentrations. At day 4 of culture, the count of viable CD138′ MMCs was determined using flow cytometry. The black columns represent the mean±SD of primary myeloma cell counts (expressed as the percentage of the count without adding 5-azcytidine) of the 7 patients with a low DM Score and the white columns that of the 7 patients with a high DM Score.
Mononuclear cells from tumor samples of 12 patients with MM (agreement of the Center for Biological Resources of Montpellier University Hospital (N° DC-2008-417)) were cultured for 4 days at 2×10^5 cells/ml in RPMI 1640 medium, 10% FCS, 2 ng/ml IL-6, with or without graded concentrations of decitabine. In each culture group, viability and cell counts were assayed and MMCs were stained with an anti-CD138-PE mAb (Immunotech, Marseille, France) as previously described (32).
Primary myeloma cells of 14 patients were cultured with or without graded concentrations of 5-azacitidine and MMC cytotoxicity evaluated using anti-CD138-PE mAb (Immunotech, Marseille, France) as described (Jourdan, et al 1998; Mahtouk, et al 2004; Moreaux, et al 2012).

[2] = test system: human myeloma cell lines (HMCLs); experiment: Growth assay for myeloma cells (Cell Titer Glo, 4 days, graded DNMTi concentrations); format: cell-based; conditions: for IC50: Homo sapiens, 5-azacitidine
Experimental: HMCLs were cultured for 4 days in 96-well flat-bottom microtiter plates in RPMI 1640 medium, 10% FCS, 2 ng/ml IL-6 culture medium (control), with graded decitabine concentrations. Data are mean values plus or minus standard deviation (SD) of 5 experiments determined on sextuplet culture wells.
HMCLs were cultured for 4 days in 96-well flat-bottom microtiter plates in RPMI 1640 medium, 10% FCS, 2 ng/ml IL-6 culture medium (control), and graded 5-azacitidine concentrations. Data are mean values plus or minus standard deviation (SD) of 5 experiments determined on sextuplet culture wells.
HMCLs were cultured for 4 days in 96-well flat-bottom microtiter plates in RPMI 1640 medium, 10% FCS, 2 ng/ml IL-6 culture medium (control), with graded decitabine concentrations. Cell growth was evaluated by quantifying intracellular ATP amount with a Cell Titer Glo Luminescent Assay (Promega, Madison, Wis.) with a Centro LB 960 luminometer (Berthold Technologies, Bad Wildbad, Germany).
The inventors sought to determine whether DM Score could predict for the sensitivity of 10 HMCLs to DNMT inhibitor. Starting from a large cohort of 40 HMCLs (22), the 10 HMCLs with the highest or lowest DM Score were selected to assay decitabine sensitivity.
HMCLs were cultured with graded 5-azacitidine (Sigma, St. Louis, Mo.) concentrations. HMCLs cell growth was quantified with a Cell Titer Glo Luminescent Assay (Promega, Madison, Wis.) and half inhibitory concentration (IC50) was determined using GraphPad Prism (http://www.graphpad.com/scientific-software/prism/).

IC50 ([2]; 6 HMCLs with high DM Score, read-out: IC50 range): 1.12 to 8.25 µM
IC50 ([2]; 6 HMCLs with high DM Score, read-out: median IC50): 2.43 µM
IC50 ([2]; 6 HMCLs with low DM Score, read-out: IC50 range): 5.73 to 27.9 µM
IC50 ([2]; 6 HMCLs with low DM Score, read-out: median IC50): 7.45 µM
Structure (SMILES): Nc1ncn([C@@H]2O[C@H](CO)[C@@H](O)[C@H]2O)c(=O)n1 [5-azacitidine, 5-Azacytidine]
fold higher 5-azacytidine sensitivity [1]: 1.6 fold
fold higher 5-azacitidine sensitivity ([2]; HMCLs with high DM Score versus low DM Score, P=0.01): 3 fold
